The source of these data is ChEMBL document CHEMBL4311972, “Discovery of a benzothiophene-flavonol halting miltefosine and antimonial drug resistance in Leishmania parasites through the application of medicinal chemistry, screening and genomics” (Eur J Med Chem, 2019).

A value given as a limit tells only on which side of the number the result lay.

One series addresses T1, CYP1A2 (Homo sapiens, UniProt P05177).
T1 sequence (P05177 whole entry): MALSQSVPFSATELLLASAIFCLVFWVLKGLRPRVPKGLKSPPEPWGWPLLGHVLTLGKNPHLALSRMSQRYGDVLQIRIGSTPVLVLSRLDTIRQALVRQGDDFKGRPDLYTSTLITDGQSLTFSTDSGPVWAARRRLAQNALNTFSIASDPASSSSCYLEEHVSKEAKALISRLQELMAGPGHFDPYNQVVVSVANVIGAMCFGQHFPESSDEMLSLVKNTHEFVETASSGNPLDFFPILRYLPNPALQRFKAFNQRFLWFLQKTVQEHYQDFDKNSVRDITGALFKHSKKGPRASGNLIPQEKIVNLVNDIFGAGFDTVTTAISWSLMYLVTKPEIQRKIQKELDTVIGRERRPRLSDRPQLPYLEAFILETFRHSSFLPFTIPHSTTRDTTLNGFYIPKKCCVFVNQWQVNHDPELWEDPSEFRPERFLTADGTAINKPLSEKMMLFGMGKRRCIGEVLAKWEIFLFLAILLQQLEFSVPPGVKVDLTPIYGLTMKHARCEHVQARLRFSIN
In words: Inhibition of human microsomal CYP1A2 expressed in baculovirus infected insect cells at 10 uM using luciferin-1A2 as substrate preincubated with enzyme/substrate mixture for 30 mins followed by further incubation with NADPH for 30 mins by CYP450 luciferase Glo assay relative to control. The series is classed as ADME. The note with it: probe luciferin-1A2.

The test system of another series is Trypanosoma brucei. Nature of the series: Antitrypanosomal activity against Trypanosoma brucei bloodstream form assessed as parasite growth inhibition incubated for 72 hrs by resazurin dye based assay. It is filed as functional, organism-based. Particulars: Trypanosoma brucei, 72 h; read-out: EC50. For orientation: Alamar Blue is a resazurin reagent that responds to reducing activity.

The nature of series [1]: Selectivity index, ratio of CC50 for human THP1 cells to EC50 for luciferase expressing intracellular amastigote stage of Leishmania infantum infected in human THP1 cells. The series is classed as toxicity, cell-based. Particulars: read-out: Ratio CC50/EC50.
In the next series the target is CYP2D6 (Homo sapiens, UniProt P10635). In words: Inhibition of human microsomal CYP2D6 expressed in baculovirus infected insect cells at 10 uM using luciferin-ME as substrate preincubated with enzyme/substrate mixture for 30 mins followed by further incubation with NADPH for 30 mins by CYP450 luciferase Glo assay relative to control. The series is classed as ADME. The note with it: probe luciferin-ME.
Chain of CYP2D6 (P10635 whole entry): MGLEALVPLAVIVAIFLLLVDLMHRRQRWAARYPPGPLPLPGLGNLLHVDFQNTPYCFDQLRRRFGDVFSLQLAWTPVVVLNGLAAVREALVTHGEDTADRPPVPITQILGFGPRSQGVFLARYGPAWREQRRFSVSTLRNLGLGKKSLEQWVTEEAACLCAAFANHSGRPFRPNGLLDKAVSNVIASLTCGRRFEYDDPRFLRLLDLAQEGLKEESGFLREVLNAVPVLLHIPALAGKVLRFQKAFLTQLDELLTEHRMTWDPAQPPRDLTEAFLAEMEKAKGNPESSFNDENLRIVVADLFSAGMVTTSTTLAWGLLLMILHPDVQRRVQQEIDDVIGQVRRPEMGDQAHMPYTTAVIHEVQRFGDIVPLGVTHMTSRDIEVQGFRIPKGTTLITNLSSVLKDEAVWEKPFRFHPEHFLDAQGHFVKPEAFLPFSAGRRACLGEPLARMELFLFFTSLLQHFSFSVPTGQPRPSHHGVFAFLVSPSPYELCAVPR

In a further series the target is CYP2C19 (Homo sapiens, UniProt P33261). In words: Inhibition of human microsomal CYP2C19 expressed in baculovirus infected insect cells at 10 uM using luciferin-H EGE as substrate preincubated with enzyme/substrate mixture for 30 mins followed by further incubation with NADPH for 30 mins by CYP450 luciferase Glo assay relative to control. It is filed as ADME. Particulars: probe luciferin-H EGE.
Chain of CYP2C19 (P33261 whole entry): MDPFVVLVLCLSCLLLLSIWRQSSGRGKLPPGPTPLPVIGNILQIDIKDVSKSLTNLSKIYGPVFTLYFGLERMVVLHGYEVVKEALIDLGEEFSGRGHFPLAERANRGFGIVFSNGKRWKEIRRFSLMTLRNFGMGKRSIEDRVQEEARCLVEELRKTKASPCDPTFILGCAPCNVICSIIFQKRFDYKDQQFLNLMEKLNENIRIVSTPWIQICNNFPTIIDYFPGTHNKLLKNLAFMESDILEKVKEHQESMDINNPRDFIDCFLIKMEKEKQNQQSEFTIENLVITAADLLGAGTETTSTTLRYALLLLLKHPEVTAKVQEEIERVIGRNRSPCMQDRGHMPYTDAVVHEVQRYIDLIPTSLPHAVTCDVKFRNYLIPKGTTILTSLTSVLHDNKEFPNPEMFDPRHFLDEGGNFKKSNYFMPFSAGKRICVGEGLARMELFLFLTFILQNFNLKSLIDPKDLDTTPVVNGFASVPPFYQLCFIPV

The test system of the next series is 786-0. Nature of the series: Mitochondrial toxicity in human 786-0 cells at 10 uM incubated with compound for 6 hrs followed by incubation with MitoTracker Red chloromethyl-X-rosamine dye for 45 mins by imaging analysis. The series is classed as cell-based. The note with it: 786-0, 6 h.
Series [2] in a line: Cytotoxicity against human THP1 cells by MTT assay. It is filed as cell-based, THP-1. A general note: Formazan colour is commonly taken as a measure of viable cells.
A short description of series [3]: Cytotoxicity against human A549 cells assessed as cell growth at […] incubated for 48 hrs by Celltiter-Glo luminescence assay relative to control. The series is classed as cell-based. More on the design: dose or concentration left out as unconfirmed. The note with it: read-out: Activity.
A further series concerns the target hERG (KCNH2) (Homo sapiens, UniProt Q12809). In words: Inhibition of human ERG at 10 uM incubated for 2 hrs by fluorescence polarization assay relative to control.
In the next series the target is CYP3A4 (Homo sapiens, UniProt P08684). Nature of the series: Inhibition of human microsomal CYP3A4 expressed in baculovirus infected insect cells at 10 uM using luciferin-IPA as substrate preincubated with enzyme/substrate mixture for 30 mins followed by further incubation with NADPH for 30 mins by CYP450 luciferase Glo assay relative to control. The series is classed as ADME. Particulars: probe luciferin-IPA.
Chain of CYP3A4 (P08684 whole entry): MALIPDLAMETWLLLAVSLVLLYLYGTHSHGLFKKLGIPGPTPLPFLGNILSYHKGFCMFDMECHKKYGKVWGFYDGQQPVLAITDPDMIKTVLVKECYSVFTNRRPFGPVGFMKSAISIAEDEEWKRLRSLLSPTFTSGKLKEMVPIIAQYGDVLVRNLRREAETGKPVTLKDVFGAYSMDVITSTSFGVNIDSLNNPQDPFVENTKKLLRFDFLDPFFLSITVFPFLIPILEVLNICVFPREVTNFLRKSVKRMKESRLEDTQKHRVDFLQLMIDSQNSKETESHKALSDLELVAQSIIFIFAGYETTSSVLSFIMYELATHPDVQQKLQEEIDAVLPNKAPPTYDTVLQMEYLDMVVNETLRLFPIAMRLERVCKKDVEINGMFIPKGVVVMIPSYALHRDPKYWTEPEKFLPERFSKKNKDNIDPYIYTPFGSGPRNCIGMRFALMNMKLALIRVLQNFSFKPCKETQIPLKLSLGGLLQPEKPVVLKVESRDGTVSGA

The next series deals with Leishmania infantum. In words: Antileishmanial activity against luciferase expressing intracellular amastigote stage of Leishmania infantum infected in human THP1 cells assessed as parasite growth inhibition measured after 48 to 72 hrs by steady-glo luciferase assay. The series is classed as functional, organism-based. Particulars: Leishmania infantum, THP-1; read-out: EC50.

In the next series the target is CYP2C9 (Homo sapiens, UniProt P11712). Nature of the series: Inhibition of human microsomal CYP2C9 expressed in baculovirus infected insect cells at 10 uM using luciferin-H as substrate preincubated with enzyme/substrate mixture for 30 mins followed by further incubation with NADPH for 30 mins by CYP450 luciferase Glo assay relative to control. It is filed as ADME. Particulars: probe luciferin-H.
Chain of CYP2C9 (P11712 whole entry): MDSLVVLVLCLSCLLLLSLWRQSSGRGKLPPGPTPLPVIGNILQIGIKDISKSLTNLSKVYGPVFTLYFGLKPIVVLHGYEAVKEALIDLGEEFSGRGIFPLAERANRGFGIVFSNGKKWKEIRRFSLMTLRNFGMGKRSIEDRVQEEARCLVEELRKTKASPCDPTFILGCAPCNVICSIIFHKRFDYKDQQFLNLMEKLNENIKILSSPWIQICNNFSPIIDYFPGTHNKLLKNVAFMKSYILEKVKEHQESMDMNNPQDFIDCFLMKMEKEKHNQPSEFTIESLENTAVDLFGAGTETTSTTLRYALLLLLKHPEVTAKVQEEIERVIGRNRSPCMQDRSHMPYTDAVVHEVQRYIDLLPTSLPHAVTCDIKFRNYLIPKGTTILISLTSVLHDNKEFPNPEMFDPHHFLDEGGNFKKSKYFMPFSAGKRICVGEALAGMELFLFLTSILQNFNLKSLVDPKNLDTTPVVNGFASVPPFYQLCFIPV

Series [4] in a line: Selectivity index, ratio of CC50 for human THP1 cells to EC50 for Trypanosoma brucei bloodstream form. It is filed as toxicity. The note with it: read-out: Ratio CC50/EC50.

Chain of hERG (KCNH2) (Q12809 whole entry): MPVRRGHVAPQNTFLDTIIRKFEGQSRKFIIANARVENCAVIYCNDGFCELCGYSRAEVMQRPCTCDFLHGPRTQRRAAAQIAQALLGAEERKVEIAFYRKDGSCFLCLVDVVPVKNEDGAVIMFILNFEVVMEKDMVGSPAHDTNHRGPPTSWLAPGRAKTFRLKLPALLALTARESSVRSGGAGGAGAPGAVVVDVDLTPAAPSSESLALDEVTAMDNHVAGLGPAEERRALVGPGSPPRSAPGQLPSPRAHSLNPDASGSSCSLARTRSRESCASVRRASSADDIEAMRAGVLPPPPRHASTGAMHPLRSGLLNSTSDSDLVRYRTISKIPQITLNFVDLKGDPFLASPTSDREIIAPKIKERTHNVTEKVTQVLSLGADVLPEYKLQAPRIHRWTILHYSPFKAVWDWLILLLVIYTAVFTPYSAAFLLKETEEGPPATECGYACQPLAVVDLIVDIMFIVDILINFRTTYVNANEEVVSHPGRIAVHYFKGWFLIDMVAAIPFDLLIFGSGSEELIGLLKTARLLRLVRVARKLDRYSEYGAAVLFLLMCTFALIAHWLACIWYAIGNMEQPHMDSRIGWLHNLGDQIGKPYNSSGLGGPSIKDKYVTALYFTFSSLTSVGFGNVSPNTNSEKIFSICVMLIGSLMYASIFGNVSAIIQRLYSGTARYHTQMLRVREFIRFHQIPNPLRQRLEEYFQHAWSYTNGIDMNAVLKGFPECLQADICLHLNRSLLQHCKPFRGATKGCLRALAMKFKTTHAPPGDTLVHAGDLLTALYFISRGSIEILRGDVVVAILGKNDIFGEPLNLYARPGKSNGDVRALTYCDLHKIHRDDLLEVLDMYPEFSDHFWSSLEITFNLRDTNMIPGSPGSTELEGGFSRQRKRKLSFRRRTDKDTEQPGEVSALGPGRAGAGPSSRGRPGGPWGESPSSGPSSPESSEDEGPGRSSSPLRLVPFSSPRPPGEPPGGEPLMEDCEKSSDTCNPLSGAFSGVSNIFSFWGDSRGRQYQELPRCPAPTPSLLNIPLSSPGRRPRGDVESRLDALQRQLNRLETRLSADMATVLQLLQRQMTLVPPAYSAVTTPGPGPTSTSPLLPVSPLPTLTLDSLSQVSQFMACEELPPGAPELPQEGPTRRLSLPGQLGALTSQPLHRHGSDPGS

Consider `O=c1c(O)c(-c2csc3ccccc23)oc2ccc(Cl)cc12`, for which the inhibition (commonly the drop in the measured response relative to a control, in per cent) at 0.5 h, 10 µM at CYP1A2 was 84.7%; at CYP2D6 it was 16.2%; at CYP2C19 it was 12%; at CYP3A4 it was 1.36%; at CYP2C9, 28.6%. Besides, the results for the EC50 with Trypanosoma brucei and in the series on Leishmania infantum were 2.1 µM and 2.7 µM, respectively. In addition, the selectivity ratio in series [1] worked out at 5. Moreover, the Activity in the series on 786-0 was -21.98%. Further, in series [2], the CC50 (commonly the concentration that lowers cell viability or growth by half) fell in the range of 12.5 to 25 µM. In addition, in series [3], the viability at 48 h is 126%. Moreover, at hERG (KCNH2), the inhibition at 2 h, 10 µM was -14%.
As to `COc1ccc2oc(-c3csc4ccccc34)c(OC(C)=O)c(=O)c2c1`, the inhibition at 0.5 h, 10 µM on CYP1A2 was 90.7%; on CYP2D6, 30.8%; at CYP2C19, 69.6%; on CYP3A4 it was 42%; on CYP2C9, -229%. Also, the results for the EC50 in the series on Trypanosoma brucei and with Leishmania infantum were 1.3 µM and 2.1 µM, respectively. The selectivity ratio in series [1] amounted to 6. Besides, in the series with 786-0, the Activity is reported as -27.27%. The compound also came in with a CC50 in [2] of 12.5 to 25 µM. The viability at 48 h in series [3] was 47.3%. Besides, the inhibition at 2 h, 10 µM against hERG (KCNH2) is -30%.
For the compound `O=c1c(O)c(-c2csc3ccccc23)oc2ccc(F)cc12`, the inhibition at 0.5 h, 10 µM at CYP1A2 was 86.4%; on CYP2D6 it was 16.8%; at CYP2C19, 26%; on CYP3A4, 11.5%; at CYP2C9 it was 25.4%. The results for the EC50 in the series with Trypanosoma brucei and in the series with Leishmania infantum were 1.5 µM and 6 µM, respectively. Moreover, in series [1], the selectivity ratio was 4. In addition, the Activity with 786-0 was -23.6%. For the same compound, in [2], the CC50 fell in the range of 25 to 50 µM. Besides, in [3], the viability at 48 h turned out to be 99.1%. In addition, on hERG (KCNH2), the inhibition at 2 h, 10 µM is -29.6%.
As for `CCCCC(=O)Oc1c(-c2csc3ccccc23)oc2ccc(OC)cc2c1=O`, the inhibition at 0.5 h, 10 µM on CYP1A2 is 83.3%; on CYP2D6, 29.3%; on CYP2C19, 33.9%; at CYP3A4, 61.8%; on CYP2C9, 48.3%. In addition, the EC50 – broadly, the concentration that produces a half-maximal response – in the series on Trypanosoma brucei stood at 1.3 µM; in the series with Leishmania infantum, 2.4 µM. Also, the selectivity ratio in series [1] was determined as 5. The Activity in the series with 786-0 is 0.75%. Moreover, the CC50 in series [2] fell in the range of 12.5 to 25 µM. Besides, the viability at 48 h in series [3] was 12.4%. The inhibition at 2 h, 10 µM on hERG (KCNH2) turned out to be 1.12%.
Turning to `O=c1c(O)c(-c2csc3ccccc23)oc2ccc(Br)cc12`, the inhibition at 0.5 h, 10 µM on CYP1A2 was 78%; at CYP2D6, 27.5%; at CYP2C19, 24.3%; on CYP3A4 it was -6.12%; on CYP2C9, 25.3%. In addition, the EC50 was 1.5 µM in the series on Trypanosoma brucei and 2.7 µM in the series on Leishmania infantum. Further, the selectivity ratio in series [1] was found to be 9. Further, the Activity in the series with 786-0 is -22.7%. In series [2], this compound gave a CC50 of 25 to 50 µM. Moreover, in [3], the viability at 48 h was found to be 119%. In addition, on hERG (KCNH2), the inhibition at 2 h, 10 µM is -60.1%.
On to `COc1ccc2c(=O)c(O)c(-c3sccc3C)oc2c1`, for which the inhibition at 0.5 h, 10 µM on CYP1A2 came out at 108%; on CYP2D6, 9.1%; on CYP2C19 it was 35.2%; on CYP3A4, 79.4%; at CYP2C9, 45.5%. The EC50 with Trypanosoma brucei turned out to be 4.9 µM. In addition, in the series on 786-0, the Activity is listed as -8.17%. In addition, in series [2], the CC50 fell in the range of 12.5 to 25 µM. Also, in series [3], the viability at 48 h is 65%. Besides, the inhibition at 2 h, 10 µM against hERG (KCNH2) is -3.84%. In addition, the selectivity ratio in series [4] turned out to be 3.
On to `COc1ccc2c(=O)c(O)c(-c3ccc4c(c3)OCO4)oc2c1`, for which the inhibition at 0.5 h, 10 µM on CYP1A2 turned out to be 101%; at CYP2D6 it was 105%; at CYP2C19, 80.3%; on CYP3A4, 55.5%; on CYP2C9 it was 72.7%. In addition, the EC50 in the series on Trypanosoma brucei was 0.4 µM. For the same compound, in the series on 786-0, the Activity is given as 6.41%. Moreover, the CC50 in series [2] was > 100 µM. In [3], the viability at 48 h worked out at 43.2%. For the same compound, the inhibition at 2 h, 10 µM at hERG (KCNH2) worked out at 9.49%. The selectivity ratio in series [4] worked out at 250.
Regarding `O=c1c(O)c(-c2cccc(-c3ccc(O)c(O)c3)c2)oc2ccc(O)cc12`, the inhibition at 0.5 h, 10 µM on CYP1A2 was 51.9%; on CYP2D6 it was 34%; on CYP2C19, 31.5%; on CYP3A4 it was 21.5%; at CYP2C9 it was -22.6%. The EC50 with Trypanosoma brucei is 1.7 µM. In the series on 786-0, the Activity is -1.03%. This compound also registered a CC50 in series [2] of 25 to 50 µM. Moreover, the viability at 48 h in series [3] stood at 32.5%. The inhibition at 2 h, 10 µM on hERG (KCNH2) was 4.2%. Besides, the selectivity ratio in series [4] turned out to be 15.
